Assay results published in paper PMC4826227, “A pyrazolopyran derivative preferentially inhibits the activity of human cytosolic serine hydroxymethyltransferase and induces cell death in lung cancer cells” (Oncotarget, 2015).

Key:
[1] = target: T1, SHMT1 (Homo sapiens, UniProt P34896); assay: Spectrophotometric quinonoid-intermediate competitive binding assay on purified recombinant SHMT1; format: biochemical; conditions: purified SHMT1 5.5 μM, glycine 3.0 mM, 20 μM H4PteGlu, read-out: estimated inhibition constants (IC50)
T1 construct: made in house
T1 sequence (P34896 1-483): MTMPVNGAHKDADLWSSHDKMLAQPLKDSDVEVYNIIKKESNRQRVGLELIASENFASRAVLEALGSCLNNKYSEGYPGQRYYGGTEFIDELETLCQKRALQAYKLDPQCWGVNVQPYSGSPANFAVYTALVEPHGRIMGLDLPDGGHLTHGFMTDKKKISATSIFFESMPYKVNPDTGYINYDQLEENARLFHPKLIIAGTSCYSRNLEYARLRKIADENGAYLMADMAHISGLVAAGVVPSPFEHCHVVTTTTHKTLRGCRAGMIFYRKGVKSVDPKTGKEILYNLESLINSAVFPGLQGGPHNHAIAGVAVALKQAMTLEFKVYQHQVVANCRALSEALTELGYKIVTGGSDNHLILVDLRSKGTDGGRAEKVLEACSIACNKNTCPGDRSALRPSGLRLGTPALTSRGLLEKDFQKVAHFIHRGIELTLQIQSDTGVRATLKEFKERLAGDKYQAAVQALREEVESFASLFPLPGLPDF
Description: (§1) Initially, compounds 2.2 and 2.12 (Figure 1) were tested on purified recombinant SHMT1 and SHMT2 isoforms using a spectrophotometric assay, in which the inhibitors and H4PteGlu compete for binding to the same site of the enzyme. Both isozymes (5.5 μM) were incubated with a saturating concentration of glycine (3.0 mM), in the presence of 20 μM H4PteGlu and a varying concentration of either compound 2.12 or 2.2. The activity of the enzyme was calculated from the spectrophotometric measurement of the quinonoid intermediate that develops when both glycine and H4PteGlu bind to SHMT [20]. […]
(§2) Figure 2 Activity inhibition on purified SHMTs by compound 2.12 The activity of cytosolic (black symbols) and mitochondrial (red symbols) SHMT isoforms was measured in the presence of increasing concentrations of compound 2.12. […]
(§3) Inhibition of SHMT activity by compound 2.12 was tested using competitive binding assays in which the antifolate competes for binding with H4PteGlu. […] Therefore, absorbance at 500 nm is proportional to the fraction of enzyme present as ternary complex. […] The effect of DMSO concentration on quinonoid development was analysed and found to be negligible up to 20% DMSO (v/v). […] After a rapid manual mixing, the absorbance change at 500 nm was measured. […]

[2] = target: T2, SHMT2 (Homo sapiens, UniProt P34897); assay: Spectrophotometric quinonoid-intermediate competitive binding assay on purified recombinant SHMT2; format: biochemical; conditions: purified SHMT2 5.5 μM, glycine 3.0 mM, 20 μM H4PteGlu, read-out: estimated inhibition constants (IC50)
T2 construct: made in house
T2 sequence (P34897 30-504): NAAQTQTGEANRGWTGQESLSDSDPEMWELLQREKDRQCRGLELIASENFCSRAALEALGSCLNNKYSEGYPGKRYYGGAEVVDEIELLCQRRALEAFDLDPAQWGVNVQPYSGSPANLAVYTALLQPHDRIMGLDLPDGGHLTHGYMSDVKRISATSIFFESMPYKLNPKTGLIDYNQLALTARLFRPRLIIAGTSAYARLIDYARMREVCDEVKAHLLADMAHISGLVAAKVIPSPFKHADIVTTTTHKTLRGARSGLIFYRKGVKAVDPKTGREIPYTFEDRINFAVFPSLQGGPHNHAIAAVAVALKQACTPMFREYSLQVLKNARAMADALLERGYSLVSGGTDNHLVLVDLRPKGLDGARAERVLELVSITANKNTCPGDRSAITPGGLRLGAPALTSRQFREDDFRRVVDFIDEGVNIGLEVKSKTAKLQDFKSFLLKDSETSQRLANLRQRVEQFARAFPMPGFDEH
Description: as §1, §2, §3

## CCC1(c2ccc(F)cc2)C(C#N)=C(N)Oc2[nH]nc(C)c21 (centres unmarked) [compound 2.2]
[1]
  IC50: 154 ± 14.4 µM
[2]
  IC50: 263 ± 48 µM
